Data taken from ChEMBL document CHEMBL1201862, “PubChem BioAssay data set” (2004).
The source made the active and inactive calls.

Assays:
Ephrin type-A receptor 4 = Ephrin type-A receptor 4 (Mus musculus, UniProt Q03137); experiment: inhibitors of EphA4 binding to KYL peptide, primary screen, biochemical, colorimetric, mouse EphA4 (AID 689); type: functional
[1] = target: T1, Hepatocyte nuclear factor 4-alpha (Homo sapiens, UniProt P41235); type: functional, cell-based;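 also: biochemical luminescence-based dose-response counterscreen measuring inhibition of HNF4 dimerization, run alongside a screen for blockers of ABHD5–perilipin-5 interaction; split luciferase complementation of HNF4 fusion proteins in cell lysate measuring dimerization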
T1 sequence (P41235 whole entry): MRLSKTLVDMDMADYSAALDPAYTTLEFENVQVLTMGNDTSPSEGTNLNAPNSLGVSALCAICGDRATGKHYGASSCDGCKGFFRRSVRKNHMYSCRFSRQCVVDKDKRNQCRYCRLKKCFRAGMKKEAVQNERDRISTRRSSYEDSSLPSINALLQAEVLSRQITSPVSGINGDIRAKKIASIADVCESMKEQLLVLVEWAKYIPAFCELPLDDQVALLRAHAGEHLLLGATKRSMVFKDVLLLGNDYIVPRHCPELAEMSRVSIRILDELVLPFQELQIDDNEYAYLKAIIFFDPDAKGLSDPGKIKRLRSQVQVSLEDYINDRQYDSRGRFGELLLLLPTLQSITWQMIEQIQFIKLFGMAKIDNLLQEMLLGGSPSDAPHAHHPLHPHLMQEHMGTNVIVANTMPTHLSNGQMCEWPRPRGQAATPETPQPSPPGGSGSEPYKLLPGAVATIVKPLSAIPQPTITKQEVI

[2] = Luminescence Cell-Based Dose Retest to Confirm Inhibitors of Cancer Stem Cells. [Related pubchem assays (depositor defined):AID2717, AID2721]; type: functional, Homo sapiens; settings: Homo sapiens
[3] = target: Voltage-gated inwardly rectifying potassium channel KCNH2 (Homo sapiens, UniProt Q12809); experiment: hERG protection from proarrhythmic block, potency, dose response, cell-based, thallium flux (AID 2121); type: ADME
Chain of Voltage-gated inwardly rectifying potassium channel KCNH2 (Q12809 whole entry): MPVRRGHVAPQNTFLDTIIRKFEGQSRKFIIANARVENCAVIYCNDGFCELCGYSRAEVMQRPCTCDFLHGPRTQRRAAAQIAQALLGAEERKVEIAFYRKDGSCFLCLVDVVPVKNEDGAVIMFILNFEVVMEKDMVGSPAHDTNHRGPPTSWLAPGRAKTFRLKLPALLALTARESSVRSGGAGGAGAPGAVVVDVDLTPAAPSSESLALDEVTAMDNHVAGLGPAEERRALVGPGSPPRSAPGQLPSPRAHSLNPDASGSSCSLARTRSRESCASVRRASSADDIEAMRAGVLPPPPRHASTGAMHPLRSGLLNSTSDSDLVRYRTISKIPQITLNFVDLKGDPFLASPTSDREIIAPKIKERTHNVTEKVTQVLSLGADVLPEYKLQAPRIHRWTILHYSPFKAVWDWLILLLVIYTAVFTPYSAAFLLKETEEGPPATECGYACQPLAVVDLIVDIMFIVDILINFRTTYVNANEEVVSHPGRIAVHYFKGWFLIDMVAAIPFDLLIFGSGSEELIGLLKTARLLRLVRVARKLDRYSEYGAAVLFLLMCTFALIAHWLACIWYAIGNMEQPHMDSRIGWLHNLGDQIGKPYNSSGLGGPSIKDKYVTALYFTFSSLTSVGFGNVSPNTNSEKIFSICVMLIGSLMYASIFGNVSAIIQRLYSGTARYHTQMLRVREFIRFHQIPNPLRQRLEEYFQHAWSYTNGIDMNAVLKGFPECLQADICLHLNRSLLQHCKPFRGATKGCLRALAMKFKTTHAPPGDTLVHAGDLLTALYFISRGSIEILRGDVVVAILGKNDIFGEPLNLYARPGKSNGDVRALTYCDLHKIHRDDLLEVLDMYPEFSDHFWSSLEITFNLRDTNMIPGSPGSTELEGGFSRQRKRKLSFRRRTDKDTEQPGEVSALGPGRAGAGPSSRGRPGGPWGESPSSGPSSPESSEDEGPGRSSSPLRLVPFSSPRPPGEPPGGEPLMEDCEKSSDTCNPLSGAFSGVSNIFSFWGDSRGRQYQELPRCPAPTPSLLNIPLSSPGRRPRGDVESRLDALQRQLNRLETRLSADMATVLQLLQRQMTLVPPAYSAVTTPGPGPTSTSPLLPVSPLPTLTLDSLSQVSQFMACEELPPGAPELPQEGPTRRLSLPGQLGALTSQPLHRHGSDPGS

Cytochrome P450 3A4 = Cytochrome P450 3A4 (Homo sapiens, UniProt P08684);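 also: CYP3A4 tested as one member of a cytochrome P450 panel screen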
Chain of Cytochrome P450 3A4 (P08684 whole entry): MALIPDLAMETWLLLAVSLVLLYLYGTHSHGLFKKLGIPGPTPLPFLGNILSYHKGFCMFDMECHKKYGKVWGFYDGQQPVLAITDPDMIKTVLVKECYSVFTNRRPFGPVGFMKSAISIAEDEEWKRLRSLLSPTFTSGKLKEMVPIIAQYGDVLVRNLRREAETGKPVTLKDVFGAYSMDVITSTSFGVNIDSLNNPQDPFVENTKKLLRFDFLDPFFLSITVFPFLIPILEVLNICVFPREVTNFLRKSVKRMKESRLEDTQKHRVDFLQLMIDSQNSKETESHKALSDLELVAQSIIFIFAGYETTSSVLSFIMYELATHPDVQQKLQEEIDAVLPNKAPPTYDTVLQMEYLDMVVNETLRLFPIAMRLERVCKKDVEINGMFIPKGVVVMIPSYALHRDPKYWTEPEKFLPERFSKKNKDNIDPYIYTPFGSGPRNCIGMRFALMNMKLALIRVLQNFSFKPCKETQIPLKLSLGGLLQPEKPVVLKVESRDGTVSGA

Estrogen receptor beta = Estrogen receptor beta (Homo sapiens, UniProt Q92731);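 also: recombinant ER-beta bound to coactivator SRC1 peptide in presence of estradiol agonist; inhibitors block coactivator peptide binding and lower the FRET signal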
Chain of Estrogen receptor beta (Q92731 whole entry): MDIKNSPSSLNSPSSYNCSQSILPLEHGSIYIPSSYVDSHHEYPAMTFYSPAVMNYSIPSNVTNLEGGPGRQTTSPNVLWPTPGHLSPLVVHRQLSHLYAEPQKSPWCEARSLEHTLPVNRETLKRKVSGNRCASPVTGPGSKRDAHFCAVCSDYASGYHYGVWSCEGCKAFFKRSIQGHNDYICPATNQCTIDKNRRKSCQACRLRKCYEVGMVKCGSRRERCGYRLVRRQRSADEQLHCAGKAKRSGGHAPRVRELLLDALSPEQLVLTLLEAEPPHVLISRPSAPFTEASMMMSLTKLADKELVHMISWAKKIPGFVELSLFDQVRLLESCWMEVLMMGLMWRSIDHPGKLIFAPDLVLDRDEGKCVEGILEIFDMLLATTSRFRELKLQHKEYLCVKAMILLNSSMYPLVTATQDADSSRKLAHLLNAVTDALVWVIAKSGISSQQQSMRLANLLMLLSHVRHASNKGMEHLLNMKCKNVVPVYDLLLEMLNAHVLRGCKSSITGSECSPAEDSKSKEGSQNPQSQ

[4] = target: T2, Histone-lysine N-methyltransferase NSD2 (Homo sapiens, UniProt O96028); type: biochemical
T2 sequence (O96028 whole entry): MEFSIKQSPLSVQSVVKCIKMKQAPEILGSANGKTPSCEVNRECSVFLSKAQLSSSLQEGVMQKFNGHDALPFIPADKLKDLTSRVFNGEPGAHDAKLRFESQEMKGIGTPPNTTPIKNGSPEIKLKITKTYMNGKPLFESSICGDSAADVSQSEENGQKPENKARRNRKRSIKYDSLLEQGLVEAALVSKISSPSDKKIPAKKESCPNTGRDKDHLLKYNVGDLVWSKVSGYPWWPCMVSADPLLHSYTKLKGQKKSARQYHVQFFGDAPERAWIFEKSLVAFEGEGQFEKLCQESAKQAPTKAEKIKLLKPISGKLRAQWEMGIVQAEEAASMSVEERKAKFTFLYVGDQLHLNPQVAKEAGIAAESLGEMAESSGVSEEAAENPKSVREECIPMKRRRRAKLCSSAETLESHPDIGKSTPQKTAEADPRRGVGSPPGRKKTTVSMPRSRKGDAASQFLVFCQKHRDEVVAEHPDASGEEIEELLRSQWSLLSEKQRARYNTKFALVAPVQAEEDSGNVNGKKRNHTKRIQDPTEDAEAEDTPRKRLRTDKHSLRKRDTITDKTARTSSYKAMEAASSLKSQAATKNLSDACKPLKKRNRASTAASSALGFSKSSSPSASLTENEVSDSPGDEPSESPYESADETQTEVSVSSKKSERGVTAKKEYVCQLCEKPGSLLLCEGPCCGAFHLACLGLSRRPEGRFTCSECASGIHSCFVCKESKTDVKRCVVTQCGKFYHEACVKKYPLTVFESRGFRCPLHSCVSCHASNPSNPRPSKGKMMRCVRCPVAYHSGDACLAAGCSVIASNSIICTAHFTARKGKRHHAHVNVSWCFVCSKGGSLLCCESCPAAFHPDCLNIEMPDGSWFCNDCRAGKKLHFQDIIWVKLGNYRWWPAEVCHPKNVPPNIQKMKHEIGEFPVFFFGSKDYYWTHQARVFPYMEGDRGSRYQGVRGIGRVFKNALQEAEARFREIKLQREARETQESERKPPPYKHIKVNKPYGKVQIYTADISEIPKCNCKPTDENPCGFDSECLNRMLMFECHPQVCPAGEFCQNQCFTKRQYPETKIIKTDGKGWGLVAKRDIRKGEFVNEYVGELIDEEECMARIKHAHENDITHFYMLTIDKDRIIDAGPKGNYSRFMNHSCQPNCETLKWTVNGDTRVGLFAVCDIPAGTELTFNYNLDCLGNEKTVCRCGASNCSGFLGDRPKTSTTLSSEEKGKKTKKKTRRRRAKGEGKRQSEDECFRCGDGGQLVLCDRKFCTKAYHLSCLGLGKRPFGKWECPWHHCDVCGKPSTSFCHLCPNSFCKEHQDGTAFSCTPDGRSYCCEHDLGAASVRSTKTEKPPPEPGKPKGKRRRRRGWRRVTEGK

[5] = target: T3, Mannose-6-phosphate isomerase (Homo sapiens, UniProt P34949); experiment: human PMI inhibitors, high substrate, primary screen, biochemical, fluorescence intensity, high mannose 6-phosphate (AID 1220)
T3 sequence (P34949 whole entry): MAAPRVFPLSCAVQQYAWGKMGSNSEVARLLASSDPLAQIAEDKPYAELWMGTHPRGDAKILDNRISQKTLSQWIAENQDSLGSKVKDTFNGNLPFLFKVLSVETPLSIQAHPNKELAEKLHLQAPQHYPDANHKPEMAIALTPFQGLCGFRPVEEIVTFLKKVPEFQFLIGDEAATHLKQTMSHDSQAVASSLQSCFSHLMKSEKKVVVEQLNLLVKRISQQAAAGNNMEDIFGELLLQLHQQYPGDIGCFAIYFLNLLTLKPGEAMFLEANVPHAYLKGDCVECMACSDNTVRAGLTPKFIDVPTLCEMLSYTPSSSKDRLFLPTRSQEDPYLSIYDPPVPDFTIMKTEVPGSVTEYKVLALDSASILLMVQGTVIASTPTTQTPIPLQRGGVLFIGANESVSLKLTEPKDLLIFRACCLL

[6] = target: T4, High affinity choline transporter 1 (Homo sapiens, UniProt Q9GZV3); experiment: CHT inhibitors, dose response, cell-based, 5-point CRC, membrane potential dye (AID 504840); type: functional
T4 sequence (Q9GZV3 whole entry): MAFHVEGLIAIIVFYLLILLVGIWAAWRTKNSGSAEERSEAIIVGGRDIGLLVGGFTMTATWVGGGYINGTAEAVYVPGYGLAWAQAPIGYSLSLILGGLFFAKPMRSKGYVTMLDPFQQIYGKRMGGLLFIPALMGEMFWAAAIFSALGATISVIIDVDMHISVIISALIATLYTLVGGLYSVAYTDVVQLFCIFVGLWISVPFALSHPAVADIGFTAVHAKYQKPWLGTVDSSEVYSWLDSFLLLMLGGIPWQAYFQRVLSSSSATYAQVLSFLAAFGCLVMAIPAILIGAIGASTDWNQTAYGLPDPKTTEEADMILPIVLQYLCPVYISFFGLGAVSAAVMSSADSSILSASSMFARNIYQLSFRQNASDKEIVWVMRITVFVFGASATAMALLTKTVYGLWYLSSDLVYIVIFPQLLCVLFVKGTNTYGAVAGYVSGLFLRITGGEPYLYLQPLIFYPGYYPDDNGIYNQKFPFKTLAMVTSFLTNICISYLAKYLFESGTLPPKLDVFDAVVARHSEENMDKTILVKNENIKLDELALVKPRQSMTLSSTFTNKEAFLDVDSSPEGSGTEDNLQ

Estrogen receptor = target: T5, Estrogen receptor (Homo sapiens, UniProt P03372);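 also: potency for inhibiting coactivator peptide recruitment to the receptor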
T5 sequence (P03372 whole entry): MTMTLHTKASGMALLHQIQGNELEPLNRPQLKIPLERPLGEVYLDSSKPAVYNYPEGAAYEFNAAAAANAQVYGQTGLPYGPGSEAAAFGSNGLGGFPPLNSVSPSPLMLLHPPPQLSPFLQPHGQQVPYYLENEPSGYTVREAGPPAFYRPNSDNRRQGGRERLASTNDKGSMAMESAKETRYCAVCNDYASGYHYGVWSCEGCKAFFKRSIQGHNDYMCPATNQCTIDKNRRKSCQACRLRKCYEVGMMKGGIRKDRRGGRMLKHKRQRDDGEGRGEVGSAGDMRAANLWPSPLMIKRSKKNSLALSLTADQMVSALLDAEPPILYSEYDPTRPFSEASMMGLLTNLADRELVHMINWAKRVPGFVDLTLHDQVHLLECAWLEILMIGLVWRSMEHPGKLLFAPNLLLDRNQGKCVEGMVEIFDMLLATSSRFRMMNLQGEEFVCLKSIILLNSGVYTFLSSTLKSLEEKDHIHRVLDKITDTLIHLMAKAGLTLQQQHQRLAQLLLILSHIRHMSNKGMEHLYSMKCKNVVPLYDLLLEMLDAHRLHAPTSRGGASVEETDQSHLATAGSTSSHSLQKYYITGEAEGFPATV

[7] = cytotoxicity toward NIH3T3 fibroblasts, dose response, counter-screen, cell-based, ATP luminescence, mouse fibroblasts (AID 2010); type: functional;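 also: cells exposed to compound for about 90 hours before reading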
[8] = inhibitors of intracellular T. cruzi replication, confirmation, NIH3T3 host cells, beta-gal luminescence (AID 2044); type: functional, cell-based;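 also: intracellular parasites grown in NIH/3T3 mouse fibroblasts as host cells; luminescent beta-galactosidase reporter signal from transgenic T. cruzi replicating inside host cells; inhibitors lower the luminescence signal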
[9] = target: T6, Dual specificity protein phosphatase 6 (Rattus norvegicus, UniProt Q64346); experiment: MKP-3 phosphatase inhibitors, primary screen, biochemical, rat enzyme, in vitro (AID 425)
T6 sequence (Q64346 whole entry): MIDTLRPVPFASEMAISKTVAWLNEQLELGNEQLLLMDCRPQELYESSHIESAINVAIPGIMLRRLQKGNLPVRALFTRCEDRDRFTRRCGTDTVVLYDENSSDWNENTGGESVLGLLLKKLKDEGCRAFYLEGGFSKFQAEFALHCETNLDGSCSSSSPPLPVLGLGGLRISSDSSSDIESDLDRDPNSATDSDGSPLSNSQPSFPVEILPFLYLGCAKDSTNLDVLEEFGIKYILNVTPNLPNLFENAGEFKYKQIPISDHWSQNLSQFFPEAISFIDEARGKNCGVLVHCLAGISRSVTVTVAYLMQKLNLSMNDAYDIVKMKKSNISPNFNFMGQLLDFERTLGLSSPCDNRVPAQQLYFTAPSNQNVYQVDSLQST

[10] = THP-1 cell cytotoxicity, dose response, cytotoxicity control for Vif-APOBEC3G degradation inhibitor project, THP-1 cells (AID 1117359); type: functional; settings: Human immunodeficiency virus 1, THP-1
[11] = target: T7, Dual specificity protein phosphatase 3 (Homo sapiens, UniProt P51452); experiment: VHR1 phosphatase inhibitors, primary screen, biochemical, absorbance, uHTS (AID 1654)
T7 sequence (P51452 whole entry): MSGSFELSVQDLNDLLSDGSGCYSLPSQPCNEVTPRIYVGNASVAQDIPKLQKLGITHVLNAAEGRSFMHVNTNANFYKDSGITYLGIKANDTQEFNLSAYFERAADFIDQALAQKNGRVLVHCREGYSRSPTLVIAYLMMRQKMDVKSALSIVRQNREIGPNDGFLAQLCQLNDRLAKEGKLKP

[12] = target: T7, Dual specificity protein phosphatase 3; experiment: VHR1 phosphatase inhibitors, biochemical (AID 1878)
[13] = target: Induced myeloid leukemia cell differentiation protein Mcl-1 (Homo sapiens, UniProt Q07820); type: functional
Chain of Induced myeloid leukemia cell differentiation protein Mcl-1 (Q07820 whole entry): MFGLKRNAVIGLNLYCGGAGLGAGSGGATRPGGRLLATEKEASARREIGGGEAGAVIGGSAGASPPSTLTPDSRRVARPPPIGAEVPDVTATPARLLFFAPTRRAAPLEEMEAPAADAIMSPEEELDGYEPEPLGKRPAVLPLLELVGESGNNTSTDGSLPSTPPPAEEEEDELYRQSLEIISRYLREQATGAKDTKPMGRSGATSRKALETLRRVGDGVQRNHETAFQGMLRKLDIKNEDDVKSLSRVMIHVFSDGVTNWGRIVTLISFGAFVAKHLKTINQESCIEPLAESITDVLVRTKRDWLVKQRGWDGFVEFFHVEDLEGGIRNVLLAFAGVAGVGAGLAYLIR

Chain of Ephrin type-A receptor 4 (Q03137 whole entry, the tested form may be a part): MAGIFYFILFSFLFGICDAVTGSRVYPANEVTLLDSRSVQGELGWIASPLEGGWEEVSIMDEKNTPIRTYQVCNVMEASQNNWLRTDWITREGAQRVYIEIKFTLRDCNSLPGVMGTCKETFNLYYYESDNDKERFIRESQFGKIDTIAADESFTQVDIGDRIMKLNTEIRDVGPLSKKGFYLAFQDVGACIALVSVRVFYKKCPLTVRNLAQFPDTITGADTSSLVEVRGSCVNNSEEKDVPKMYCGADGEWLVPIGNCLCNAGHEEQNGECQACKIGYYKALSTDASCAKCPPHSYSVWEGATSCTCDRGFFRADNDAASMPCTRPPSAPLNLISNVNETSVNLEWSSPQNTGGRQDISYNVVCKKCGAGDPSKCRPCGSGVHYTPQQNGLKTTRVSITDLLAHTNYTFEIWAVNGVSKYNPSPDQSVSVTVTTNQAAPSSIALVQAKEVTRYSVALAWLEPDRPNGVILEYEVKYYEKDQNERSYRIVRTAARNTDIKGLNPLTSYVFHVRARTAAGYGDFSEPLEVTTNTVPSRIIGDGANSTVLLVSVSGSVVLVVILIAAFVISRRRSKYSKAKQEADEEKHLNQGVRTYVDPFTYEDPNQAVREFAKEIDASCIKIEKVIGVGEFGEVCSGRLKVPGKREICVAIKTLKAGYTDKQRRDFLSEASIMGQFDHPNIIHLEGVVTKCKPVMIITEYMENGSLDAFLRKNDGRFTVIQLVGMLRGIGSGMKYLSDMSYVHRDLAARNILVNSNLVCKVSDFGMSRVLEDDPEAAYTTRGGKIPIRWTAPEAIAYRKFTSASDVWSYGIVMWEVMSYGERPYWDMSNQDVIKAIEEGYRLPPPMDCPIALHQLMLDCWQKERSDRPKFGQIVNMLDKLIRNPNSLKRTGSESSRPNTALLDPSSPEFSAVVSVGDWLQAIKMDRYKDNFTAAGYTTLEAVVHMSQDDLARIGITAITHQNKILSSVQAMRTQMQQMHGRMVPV

Structure (SMILES): CCOC(=O)c1c(NC(C)=O)sc2c1CCC(C=O)=C2Sc1ccccc1
- IC50 (Ephrin type-A receptor 4): 2.26 µM (active)
- IC50 [1]: 28.1 µM (inactive)
- AC50 [2]: 3.85 µM (active)

Structure (SMILES): O=C(NC(=S)Nc1cccc(Cl)c1N1CCCCC1)c1ccco1
- EC50 [3]: 0.46 µM (active)
- AC50 (Cytochrome P450 3A4): 15.8 µM (inconclusive)
- AC50 [2]: 4.12 µM (active)

Structure (SMILES): CC1(C)CCCC2=C1CC1C(=O)N(O)C(=O)C1C2 (stereo unspecified)
- IC50 (Estrogen receptor beta): > 50 µM (not active)

Structure (SMILES): CCN(CC)CCCN(Cc1cc2cc3c(cc2nc1O)OCCO3)C(=O)Nc1ccccc1
- IC50 (Ephrin type-A receptor 4): 13.3 µM (active)
- AC50 [4]: > 20 µM (inactive)

Structure (SMILES): CC1Cc2ccccc2N1C(=O)CSc1nnc(-c2ccc(S(=O)(=O)N3CCCC3)cc2)n1C (stereo unspecified)
- IC50 [5]: > 50 µM (not active)

Structure (SMILES): Cc1sc2ncnc(NCc3ccco3)c2c1C
- IC50 [6]: 13.2 µM (active)
- IC50 (Estrogen receptor): 35.3 µM (not active)
- IC50 (Estrogen receptor beta): 29.4 µM (active)

Structure (SMILES): C=C1N(C)c2cc([N+](=O)[O-])c(N)cc2C1(C)C
- EC50 [7]: > 60 µM (not active)
- EC50 [8]: 5.96 µM (active)
- IC50 [5]: 11.5 µM (active)

Structure (SMILES): COC(=O)c1ccc(O)c2nc3c(C=O)c(O)cc(O)c3nc12 [LOMOFUNGIN]
- IC50 [9]: 48.2 µM (active)
- CC50 [10]: 8.31 µM (active)
- IC50 [11]: 2.06 µM (active)
- IC50 [12]: < 1.23 µM (inactive)
- IC50 [13]: 3.76 µM (active)
